From paper PMC6422671 (British Journal of Clinical Pharmacology, 2019)
“Also recorded” adds a separate entry of the source.

Legend:
[1] = test system: xanthine oxidase; parameters: method as in E Michaëlsson et al., manuscript in preparation; conditions: in vitro; ref E Michaëlsson et al., manuscript in preparation; cited from earlier work
[2] = test system: serum uric acid; assay: Serum uric acid (urate), exploratory pharmacodynamic outcome; table data mean (standard deviation); format: in vivo, healthy men; conditions: for decrease in mean serum uric acid concentration: 48 hours after dosing
Excerpt: The primary objective of the study was to evaluate the safety and tolerability of AZD4831 in healthy volunteers.
Data are mean (standard deviation).

For `C[C@@H](N)c1cc(Cl)ccc1Cn1c(=S)[nH]c(=O)c2[nH]ccc21` [AZD4831], the “inhibition of xanthine oxidase” value [1] is listed as “does not inhibit; also recorded: is not a substrate or an inhibitor”, the Urate ([2]; 5 mg fasted, 24 h) is listed as 335.1 (75.2) µmol L^–1 and the Urate ([2]; 5 mg fasted, 48 h) is listed as 293.2 (64.0) µmol L^–1. The Urate ([2]; 5 mg fasted, follow up) was 326.3 (84.2) µmol L^–1, the Urate ([2]; 15 mg fasted, 24 h) was 364.7 (35.3) µmol L^–1 and the Urate ([2]; 15 mg fasted, 48 h) was 331.6 (30.7) µmol L^–1. For the same compound, the Urate ([2]; 15 mg fasted, 72 h) was 355.7 (25.4) µmol L^–1, the Urate ([2]; 15 mg fasted, 96 h) was 366.5 (25.3) µmol L^–1 and the Urate ([2]; 15 mg fasted, 120 h) was 370.8 (40.4) µmol L^–1. The Urate ([2]; 15 mg fasted, follow up) was 366.3 (47.1) µmol L^–1, the Urate ([2]; 45 mg fasted, 24 h) was 361.7 (111.9) µmol L^–1 and the Urate ([2]; 45 mg fasted, 48 h) was 339.8 (113.0) µmol L^–1. The Urate ([2]; 45 mg fasted, 72 h) was 362.1 (111.6) µmol L^–1, the Urate ([2]; 45 mg fasted, 96 h) was 366.3 (112.8) µmol L^–1 and the Urate ([2]; 45 mg fasted, 120 h) was 382.6 (93.3) µmol L^–1. The Urate ([2]; 45 mg fasted, follow up) was 397.6 (112.6) µmol L^–1, the Urate ([2]; 45 mg fed, 24 h) was 296.4 (62.8) µmol L^–1 and the Urate ([2]; 45 mg fed, 48 h) was 283.0 (57.0) µmol L^–1. For the same compound, the Urate ([2]; 45 mg fed, 72 h) was 313.2 (47.1) µmol L^–1, the Urate ([2]; 45 mg fed, 96 h) was 316.0 (47.3) µmol L^–1 and the Urate ([2]; 45 mg fed, 120 h) was 316.5 (67.1) µmol L^–1. For the same compound, the Urate ([2]; 45 mg fed, follow up) was 314.0 (77.9) µmol L^–1, the Urate ([2]; 135 mg fasted, 24 h) was 344.3 (18.6) µmol L^–1 and the Urate ([2]; 135 mg fasted, 48 h) was 311.3 (18.6) µmol L^–1. For the same compound, the Urate ([2]; 135 mg fasted, 72 h) was 339.2 (13.9) µmol L^–1, the Urate ([2]; 135 mg fasted, 96 h) was 346.2 (25.0) µmol L^–1 and the Urate ([2]; 135 mg fasted, 120 h) was 365.9 (42.1) µmol L^–1. The Urate ([2]; 135 mg fasted, follow up) was 370.3 (31.4) µmol L^–1, the “decrease in mean serum uric acid concentration” value ([2]; 135 mg, 95% CI 29.15, 114.39, mean predose 383.0 (SD 47.5)) was 71.77 µmol/L and the Urate ([2]; 405 mg fasted, 24 h) was 262.8 (65.4) µmol L^–1. The Urate ([2]; 405 mg fasted, 48 h) was 244.6 (51.2) µmol L^–1, the Urate ([2]; 405 mg fasted, 72 h) was 256.1 (44.7) µmol L^–1 and the Urate ([2]; 405 mg fasted, 96 h) was 289.3 (46.2) µmol L^–1. The Urate ([2]; 405 mg fasted, 120 h) was 307.2 (50.9) µmol L^–1, the Urate ([2]; 405 mg fasted, follow up) was 322.2 (59.1) µmol L^–1 and the “decrease in mean serum uric acid concentration” value ([2]; 405 mg, 95% CI 58.90, 109.94, mean predose 329.0 (SD 54.2)) was 84.42 µmol/L.
